Legend:
S. turgidiscabies = assay: Bacterial growth of S. turgidiscabies cultures (dry weight of mycelia); format: cell-based, Streptomyces turgidiscabies; details: FIG. 4C
Experimental: (§1) Sonicated cell lysates from 3 mL cultures were run on 12% SDS-PAGE gels after 2.5 hr induction with 0.1 mM IPTG. […] The NOS intermediate N^ω-hydroxy-L-arginine (2 mM) and hydrogen peroxide (4 mM) were reacted with 20 μL of cell lysates shown in FIG. 4A and assayed for nitrite with the Griess reagents after 15 min.
(§2) Streptomyces turgidiscabies cultures were grown in oat bran broth or oat meal broth (Healy et al., Mol. Micro. 38:794–804 (2000); and Goyer et al., Phytopathology 88:442–445 (1998), which are hereby incorporated by reference in their entirety) inoculated with spores. After shaking at 150 rpm and 25° C. for 5–9 days the cultures were filtered and dry weight of the mycelia was measured. Thaxtomin was extracted from the filtrate with ethyl acetate, dried, redissolved in methanol, and quantified using HPLC (column: 5 μm C18; 250×4.6 mm; mobile phase: MeCN: H20:TFA (40:60:0.1)). In experiments investigating the suppression of thaxtomin production in the presence of L-NAME, this NOS inhibitor was dissolved in water, filter-sterilized, and added at the time of inoculation.

[1] = test system: thaxtomin A production by S. turgidiscabies; assay: Thaxtomin A production by S. turgidiscabies cultures in presence of NOS inhibitors (HPLC); format: cell-based, Streptomyces turgidiscabies; details: FIG. 4C, n=6
Experimental: as §1, §2
For stNOS to be responsible for thaxtomin nitration, stNOS should have NO synthase activity. Further, this activity and thaxtomin production should be arginine dependent. As predicted, overexpressed stNOS in E. coli produced nitrite from N-hydroxy-L-arginine in a standard NOS assay (FIGS. 4A–4B). N-hydroxy-L-arginine is an intermediate unique to the NOS catalytic reaction and nitrite represents the end product of NO reacting in oxygenated solution. NO synthase activity of the recombinant stNOS was inhibited by the selective NOS inhibitor nitro-L-arginine (FIG. 4B); nitro-L-arginine is the active form of Nitro-L-arginine methyl ester (NAME). NOS inhibitors were also evaluated for their effect on thaxtomin A production by S. turgidiscabies. […]

Structure (SMILES): O=[N+]([O-])c1cccc2cn[nH]c12 [7-IN, 7-nitroindazole]
- bacterial growth (S. turgidiscabies; 1.2 μM): without affecting bacterial growth
- toxin production ([1]; 1.2 μM): inhibit toxin product

Structure (SMILES): N=C(N)NN [AG, aminoguanidine]
- bacterial growth (S. turgidiscabies; 270 μM): without affecting bacterial growth
- toxin production ([1]; 270 μM): inhibit toxin product

Structure (SMILES): CNC(=N)NCCC[C@H](N)C(=O)O [NMMA, NG-monomethyl-L-arginine]
- bacterial growth (S. turgidiscabies; 510 μM): without affecting bacterial growth
- toxin production ([1]; 510 μM): inhibit toxin product
